From US20250382250A1, “STILBENE DERIVATIVE AS AHR AGONIST AND USE THEREOF” (NANJING GRITPHARMACO., LTD., priority 2022, published 2025)
Marks after values point to notes of the source that are not given here.

What was measured:
AhR = biological target: T1, AhR (Homo sapiens, UniProt P35869); experiment: AhR agonism luciferase reporter gene assay in transfected HepG2 cells; format: cell-based; conditions: 16 h, ratio of treatment group to blank
T1 construct: expressed in transfected cells; host or cells: HepG2
T1 sequence (P35869 11-848): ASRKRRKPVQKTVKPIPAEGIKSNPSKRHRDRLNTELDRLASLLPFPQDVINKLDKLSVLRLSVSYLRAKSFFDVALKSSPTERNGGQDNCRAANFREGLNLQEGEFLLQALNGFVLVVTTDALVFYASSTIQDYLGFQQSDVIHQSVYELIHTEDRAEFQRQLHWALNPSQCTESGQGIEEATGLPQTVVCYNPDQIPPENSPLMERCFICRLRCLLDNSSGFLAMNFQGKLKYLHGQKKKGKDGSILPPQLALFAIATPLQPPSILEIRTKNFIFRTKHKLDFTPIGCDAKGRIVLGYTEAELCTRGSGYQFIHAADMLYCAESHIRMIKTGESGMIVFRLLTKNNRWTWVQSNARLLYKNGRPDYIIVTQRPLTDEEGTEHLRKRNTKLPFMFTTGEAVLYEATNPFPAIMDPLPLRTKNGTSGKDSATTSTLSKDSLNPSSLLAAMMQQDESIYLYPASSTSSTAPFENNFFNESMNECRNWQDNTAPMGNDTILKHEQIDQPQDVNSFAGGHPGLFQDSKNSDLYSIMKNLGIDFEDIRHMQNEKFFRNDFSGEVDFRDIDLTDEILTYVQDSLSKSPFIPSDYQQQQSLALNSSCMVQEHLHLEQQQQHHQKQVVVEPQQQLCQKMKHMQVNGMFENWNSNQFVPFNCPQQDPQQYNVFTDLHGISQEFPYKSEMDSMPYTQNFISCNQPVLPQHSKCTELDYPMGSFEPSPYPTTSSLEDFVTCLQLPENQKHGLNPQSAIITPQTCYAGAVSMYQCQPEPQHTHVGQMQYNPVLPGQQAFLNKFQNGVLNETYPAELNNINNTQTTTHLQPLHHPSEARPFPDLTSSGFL
Procedure: When the cell confluence reached 80%, the culture medium was replaced with a fresh one, and the transfection working solution was added for transfection overnight. The formula of the working solution is as follows: 1 mL of Opti-MEM+7.5 μg of pCMV-AHR+7.5 μg of pTK-3×DRE-Luc+30 μL of lipo6000. • (2) Cell plating: The transfected cells were digested, prepared into a cell suspension at a concentration of 3×10^5 cells/mL, and then plated on a 96-well plate at 100 µL/well for adherent culture overnight. • (3) Formulation
The prepared drug-containing culture media and a blank culture medium were added to the 96-well plate described above at 100 μL/well.

atopic dermatitis = experiment: DNFB-induced atopic dermatitis mouse model (AD Score); format: in vivo, BALB/C mice; design: scale not given here; conditions: DNFB mice
Procedure: 56 clean-grade BALB/C mice aged 6-8 weeks were subjected to 5 days of adaptive feeding and then randomized into 7 groups of 8 mice each: • A. Blank control group • B. Modeling+solvent group • C. Modeling+blank matrix group • D. Modeling+positive drug mometasone furoate group • E. Modeling+1 wt % of benvitimod group • F. […] The animal experiments were conducted in accordance with the Experimental Animal Feeding, Management and Use Guidelines of China Pharmaceutical University and in compliance with animal study ethics and regulations. As shown in the above procedures, the solvent control or DNFB was given in the morning for modeling; from day 5, the test compound ointment was administered once every afternoon at 50 mg/dose evenly on the skin surface. The specific administration method is as shown above; Specific procedures: […] Severity of atopic dermatitis was scored using the AD Score criteria The severity of the appearance of dermatitis was evaluated based on 4 indicators: A. erythema/bleeding; B. dryness; C. effusion/crusting; D. edema.

| Compound | AhR receptor agonistic fold (AhR; drug concentration 0.1 μM) | AhR receptor agonistic fold (AhR; drug concentration 1 μM) | also measured |
| --- | --- | --- | --- |
| Oc1cc(/C=C/c2ccccc2)cc(O)c1C1CCCC1 [Compound 1, (E)-2-cyclopentyl-5-styryl-1,3-benzenediol] | 3.1 ± 0.3 fold | 12.1 ± 0.4 fold | – |
| Oc1cc(/C=C/c2ccc(Cl)cc2)cc(O)c1C1CCCC1 [Compound 3, (E)-2-cyclopentyl-5-(4-chlorostyryl)-1,3-benzenediol] | 4.0 ± 0.5 fold | 18.2 ± 0.6 fold | – |
| Oc1cc(/C=C/c2ccc(Br)cc2)cc(O)c1C1CCCC1 [Compound 4, (E)-2-cyclopentyl-5-(4-bromostyryl)-1,3-benzenediol] | 7.8 ± 0.1 fold | 14.4 ± 0.3 fold | – |
| Oc1cc(/C=C/c2ccccc2)cc(O)c1C1CCCCC1 [Compound 5, (E)-2-cyclohexyl-5-styryl-1,3-benzenediol] | 5.8 ± 0.3 fold | 16.6 ± 0.7 fold | – |
| Oc1cc(/C=C/c2ccc(Cl)cc2)cc(O)c1C1CCCCC1 [Compound 7, (E)-2-cyclohexyl-5-(4-chlorostyryl)-1,3-benzenediol] | 5.1 ± 0.4 fold | 9.5 ± 0.5 fold | – |
| Oc1cc(/C=C/c2ccc(Br)cc2)cc(O)c1C1CCCCC1 [Compound 8, (E)-2-cyclohexyl-5-(4-bromostyryl)-1,3-benzenediol] | 5.2 ± 0.2 fold | 11.8 ± 0.7 fold | – |
| Oc1cc(/C=C/c2ccccc2Cl)cc(O)c1C1CCCCC1 [Compound 9, (E)-2-cyclohexyl-5-(2-chlorostyryl)-1,3-benzenediol] | 4.9 ± 1.9 fold | 17.1 ± 2.5 fold | – |
| Oc1cc(/C=C/c2cccc(Cl)c2)cc(O)c1C1CCCCC1 [Compound 10, (E)-2-cyclohexyl-5-(3-chlorostyryl)-1,3-benzenediol] | 4.5 ± 1.0 fold | 14.7 ± 2.3 fold | – |
| Oc1cc(/C=C/c2ccc(F)c(F)c2)cc(O)c1C1CCCCC1 [Compound 11, (E)-2-cyclohexyl-5-(3,4-difluorostyryl)-1,3-benzenediol] | 6.6 ± 1.6 fold | 20.0 ± 1.6 fold | – |
| Oc1cc(/C=C/c2cccc(F)c2F)cc(O)c1C1CCCCC1 [Compound 12, (E)-2-cyclohexyl-5-(2,3-difluorostyryl)-1,3-benzenediol] | 6.8 ± 0.1 fold | 17.1 ± 0.6 fold | – |
| Oc1cc(/C=C/c2cc(F)cc(F)c2)cc(O)c1C1CCCCC1 [Compound 13, (E)-2-cyclohexyl-5-(3,5-difluorostyryl)-1,3-benzenediol] | 9.2 ± 1.2 fold | 14.6 ± 0.9 fold | – |
| Oc1cc(/C=C/c2ccc(F)c(F)c2F)cc(O)c1C1CCCCC1 [Compound 14, (E)-2-cyclohexyl-5-(2,3,4-trifluorostyryl)-1,3-benzenediol] | 13.1 ± 2.4 fold | 20.8 ± 1.4 fold | – |
| Oc1cc(/C=C/c2cc(F)c(F)c(F)c2)cc(O)c1C1CCCCC1 [Compound 15, (E)-2-cyclohexyl-5-(3,4,5-trifluorostyryl)-1,3-benzenediol] | 7.5 ± 1.8 fold | 22.2 ± 2.8 fold | – |
| Oc1cc(/C=C/c2cccc(F)c2)cc(O)c1C1CCCC1 [Compound 16, (E)-2-cyclopentyl-5-(3-fluorostyryl)-1,3-benzenediol] | 6.0 ± 0.8 fold | 18.5 ± 2.9 fold | – |
| C[C@@H]1C[C@H]2[C@@H]3CCC4=CC(=O)C=C[C@]4(C)[C@@]3(Cl)[C@@H](O)C[C@]2(C)[C@@]1(OC(=O)c1ccco1)C(=O)CCl [Mometasone furoate, mometasone furoate, reference compound] | – | – | Back AD score (atopic dermatitis; day 0, before ointment treatment (from day 5)): 0.00 ± 0.00; Back AD score (atopic dermatitis; day 4, before ointment treatment (from day 5)): 3.50 ± 0.61; Back AD score (atopic dermatitis; day 6, ointment 50 mg once daily from day 5 (1.2 wt % 2#/6#, 1 wt % benvitimod)): 5.38 ± 1.65**^b; Back AD score (atopic dermatitis; day 8, ointment 50 mg once daily from day 5 (1.2 wt % 2#/6#, 1 wt % benvitimod)): 6.50 ± 1.22**^a; Back AD score (atopic dermatitis; day 10, ointment 50 mg once daily from day 5 (1.2 wt % 2#/6#, 1 wt % benvitimod)): 5.00 ± 1.00**^aabb |
| CC(C)c1c(O)cc(/C=C/c2ccc(F)cc2)cc1O [Reference 2#, reference compound] | 2.5 ± 1.1 fold | 7.8 ± 1.0 fold | – |
| O=Cc1c2[nH]c3ccccc3c2cc2[nH]c3ccccc3c12 [Reference 3#, FICZ, reference compound] | 2.3 ± 0.2 fold | 4.3 ± 0.2 fold | – |
